According to patent publication US20170184604A1, “DD1ALPHA RECEPTOR AND USES THEREOF IN IMMUNE DISORDERS” (THE GENERAL HOSPITAL CORPORATION, priority 2014, published 2017):

Assays:
DD1α = assay: Ig fusion protein staining of 293T transfectants (flow cytometry); assay type: binding, human; settings: cell surface staining
Description: (§1) The bound Ig fusion proteins were detected with anti-Ig-APC. Empty vector (pcDNA3.1)-transfected cells stained with Ig proteins are shown as a negative control (gray filled) and other staining is shown as black open. […] Purified CD4+ T cells from Wt and DD1α−/− mice were assayed for binding to Ig fused DD1α or PD1 proteins. […] The bound Ig fusion proteins were detected by anti-Ig-APC. Binding amounts were determined by percentage of APC positive cells compared to control Ig protein-bound cells. […] The bead bound proteins were eluted and determined by western blot analysis using anti-HA antibody (asterisks). […] The bead bound proteins were eluted and detected by western blot analysis with anti-DD1α or anti-PD1 antibody (asterisk). […] MCF7 cells were treated by Nutlin-3 (10 μM) for 1 to 3 days. MCF7 cells were transfected with control siRNA or p53 siRNA for 24 hours and treated with CPT (500 nM) or DMSO (control) for 1 and 2 days. The levels of indicated proteins were analyzed by western blot analysis. Total RNAs from control siRNA or p53 siRNA transfected MCF7 cells were assessed for mRNA levels of PD1 or PD-L1 by real-time quantitative PCR.

PD-L1 = assay: as above; assay type: binding, human; settings: cell surface staining
[1] = test system: Jurkat cells expressing DD1α receptor; assay: Ig fusion protein binding to Jurkat cells; settings: several concentrations; anti-Ig-APC detection
Description: Jurkat cells overexpressing DD1alpha (transfected with DD1alpha cDNA) or control Jurkat cells were assayed for binding to Ig-fused DD1α or PD-1 proteins. Cells were incubated with several different concentrations of DD1α-Ig (left panels) or PD1-Ig (right panels), and the bound Ig fusion proteins were detected by anti-Ig-APC. Binding amounts were determined by percentage of APC positive cells.

TIM-3 = target: T1, TIM-3 (Homo sapiens, UniProt Q8TDQ0); assay: Ig fusion protein staining of 293T transfectants (flow cytometry); assay type: binding; settings: cell surface staining
T1 construct: full length human PD-1 and Tim3 cDNA (Sino biological) were cloned into pcDNA3.1(−) tagged with HA at C-terminus; host or cells: HEK293T
Description: as §1

PD-1 = target: T2, PD-1 (Homo sapiens, UniProt Q15116); assay: as above; assay type: binding; settings: cell surface staining
T2 construct: full length human PD-1 and Tim3 cDNA (Sino biological) were cloned into pcDNA3.1(−) tagged with HA at C-terminus; host or cells: HEK293T
T2 sequence (Q15116 25-288): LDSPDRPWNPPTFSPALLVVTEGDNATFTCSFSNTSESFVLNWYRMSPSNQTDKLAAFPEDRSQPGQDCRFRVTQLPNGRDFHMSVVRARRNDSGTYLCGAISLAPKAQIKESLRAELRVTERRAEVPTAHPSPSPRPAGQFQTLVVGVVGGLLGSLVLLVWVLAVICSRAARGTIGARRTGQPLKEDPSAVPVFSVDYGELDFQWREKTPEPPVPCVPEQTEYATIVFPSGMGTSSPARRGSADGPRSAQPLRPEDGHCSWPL
Description: as §1

human CD4+ T cells = assay: Human T cell activation assay (CFSE proliferation, cytokine ELISA); assay type: cell-based
Description: Enriched human CD4+ T cells and CD8+ T cells were stained with CFSE (1 μM) and stimulated with plate-bound anti-CD3 antibody (3 μg/ml) together with 2, 5, or 10 μg/ml of DD1α-Ig proteins or control Ig proteins. The proliferations of CD4+ T or CD8+ T cells were determined by the percentages of CFSE-labeled CD4+ T or CD8+ T cells at the 72-hour culture. The levels of cytokines IFN-γ and TNF-α in culture supernatant were analyzed by ELISA at the 48-hour culture. […] The proliferation and cytokine production of CD4+ T cells were determined as FIG. 5A. […] The proliferations of CD4+ T cells were determined by percentage of CFSE-diluted CD4+ cells on day 3. The levels of cytokines IFN-γ and IL-2 in culture supernatant were analyzed by ELISA on day 2. […] Data are shown as mean±SD and representative of three experiments.
The proliferations of CD4^+ T cells were determined by percentage of CFSE-diluted CD4^+ cells on day 3.
The cytokine production of CD4^+ T cells were then determined IFN-γ and TNF-alpha levels in culture supernatants on day 2 were analyzed by ELISA.
The amount of Ig protein was kept constant at 10 μg/ml by the addition of control Ig protein. Human CD4+ or CD8+ T cells were purified from freshly isolated PBMCs using CD4+ T Cell Isolation Kit II, human or CD8+ T Cell Isolation Kit, human (Miltenyi Biotec). Mouse CD4+ and CD8+ T cells were purified from splenocytes freshly isolated from mice using CD4+ T Cell Isolation Kit II, mouse or CD8a+ T Cell Isolation Kit II, mouse (Miltenyi Biotec). […] The T cells were labeled with 1 μM CFSE, quenched by cold FBS and incubated in the anti-CD3 & Ig proteins-coated plates. On day 2 after stimulation, supernatant was collected and cytokines were assayed by ELISA. On day 3, cells were stained with anti-CD4-APC (OKT4, eBioscience for human CD4+ T cells; RM4-5, eBioscience for mouse CD4+ T cells) or anti-CD8-APC (SK1, eBioscience for human CD8+ T cells; 53-6.7, eBioscience for mouse CD8+ T cells) and then analyzed for CFSE dilution by flow cytometry.

DD1α, sequence (Q9H7M9 33-311): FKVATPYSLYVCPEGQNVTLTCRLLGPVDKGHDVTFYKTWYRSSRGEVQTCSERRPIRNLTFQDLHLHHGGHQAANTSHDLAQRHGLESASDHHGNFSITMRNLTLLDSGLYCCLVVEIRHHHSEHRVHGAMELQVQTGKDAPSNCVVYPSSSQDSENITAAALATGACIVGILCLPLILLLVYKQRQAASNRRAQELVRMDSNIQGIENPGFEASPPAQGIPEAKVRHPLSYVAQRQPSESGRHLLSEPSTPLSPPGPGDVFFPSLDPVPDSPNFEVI

DD1α-Ig: the extracellular region of DD1α fused with the immunoglobulin G Fc segment
binding to DD1α-transfected 293T cells (DD1α): specifically bound
binding to PD-L1 transfectants (PD-L1): not to PD-L1 or TIM-3 transfectants
binding to Jurkat cells expressing DD1α receptor [1]: bind
binding to TIM-3 transfectants (TIM-3): not to PD-L1 or TIM-3 transfectants
binding to PD-1-transfected 293T cells (PD-1): specifically bound
T cell activation-induced production of IFN-γ and TNF-α (human CD4+ T cells; human CD4+ and CD8+ T cells, ELISA of culture supernatant): clearly blocked
proliferation of human CD4+ T cells (human CD4+ T cells; plate-bound anti-CD3 3 μg/ml, CFSE, Ig control 92.2%): 47.1%
inhibition of anti-CD3-stimulated human CD4+ T cell proliferation (human CD4+ T cells; plate-bound anti-CD3 3 μg/ml, CFSE, relative to Ig control (92.2% proliferation)): ~45%
CD4+ T cell proliferation stimulated by anti-CD3 (human CD4+ T cells; various concentrations with 3 μg/ml anti-CD3): strongly inhibited
